{
  "source": "patent US20230392127A1",
  "about": "“METHOD FOR CONSTRUCTION OF ATOPIC DERMATITIS MODEL BY USING PLURIPOTENT STEM CELL-DERIVED SKIN ORGANOID” (KANGSTEM BIOTECH CO., LTD., priority 2020, published 2023)",
  "key": {"[1]": {"tested_on": "induced pluripotent stem cell-derived skin organoids", "assay": "Skin organoid size and cartilage formation after Wnt signaling pathway activation (brightfield images)", "format": "cell-based, human", "description": "A skin organoid was cultured based on the literature disclosing an existing skin organoid differentiation protocol using induced pluripotent stem cell lines (Lee, J. et al. Hair-bearing human skin generated entirely from pluripotent stem cells. Nature 582, 399-404(2020)). The induced pluripotent stem cell colony was separated into small cell populations using ReLeSR™ (Stem Cell Technology) and then separated into single cells using Accutase (ThermoFisher). For embryoid body formation, 1000 single cells were aliquoted into each well of a U-bottom low-attachment 96-well plate (Corning). Essential 8 (Gibco) supplemented with Y-27632 (20 μM) was used as an embryoid body culture solution. The single cells were cultured for 2 days until the embryoid body grew to a size of 300 to 500 μm. On day 2 of differentiation, the formed embryoid bodies were transferred to a culture solution including 2% Matrigel (Matrigel; Corning), 10 μM SB431542 (Tocris), 4 ng/ml FGF2 (PeproTech) and 15 ng/ml BMP4 (PeproTech) for non-neural ectoderm differentiation induction. […] The skin organoid to be analyzed was photographed with an EVOS XL Core brightfield system microscope (Thermo Fisher) at ×40 magnification. […]"}, "[2]": {"tested_on": "cartilage expression markers COL2A, ACAN, and SOX9", "assay": "Real-time PCR of cartilage expression markers in skin organoids", "format": "cell-based, human", "conditions": "skin organoids on day 69; real-time PCR normalized to GAPDH; CHIR(+) vs CHIR(-); FIG. 8", "description": "As a method for evaluating gene expression, cells were lysed and genes were extracted using a lysis buffer, and gene expression was quantified using RT-PCR. To evaluate gene expression, total RNA was isolated with an RNeasy kit (Qiagen, Cat. No. 74106) and cDNA was prepared according to the manufacturer's instructions using Reverse Transcriptase III (Thermo Fisher Scientific, Cat. No. 4368814). Real-time PCR was performed using SRBR Green Master Mix (Thermo Fisher Scientific, Cat. No. A25776) and detection was performed using a Step One Plus Real-time PCR system (Applied Biosystems). The expression of genes was normalized to the expression of glyceraldehyde-3-phosphate dehydrogenase (GAPDH). The degree of gene expression was evaluated using primers specific for COL2A, ACAN, and SOX9 mRNAs."}},
  "data": [
    {"smiles": "Cc1c[nH]c(-c2cnc(NCCNc3ccc(C#N)cn3)nc2-c2ccc(Cl)cc2Cl)n1", "note": "[CHIR-99021]", "values": [
      {"measurement": "cartilage formation in skin organoids", "setting": "[1]; 0.5 to 8 μM added on day 6, organoids on days 38, 65 and 85, vs CHIR(-), FIG. 7", "result": "cartilage was not formed"},
      {"measurement": "sizes of the organoids", "setting": "[1]; 0.5 to 8 μM added to culture solution on day 6 of differentiation, compared to skin organoids generated by the existing method (CHIR(-)), FIGS. 6 and 7", "result": "remarkably increased"},
      {"measurement": "gene expression level of cartilage expression marker ACAN", "setting": "[2]", "result": "remarkably reduced"},
      {"measurement": "gene expression level of cartilage expression marker COL2A", "setting": "[2]", "result": "remarkably reduced"},
      {"measurement": "gene expression level of cartilage expression marker SOX9", "setting": "[2]", "result": "remarkably reduced"}
    ]}
  ]
}
